These results are taken from patent publication US7713714B2, “Isolated nona- and decapeptides which bind to HLA molecules, and the use thereof” (Ludwig Institute for Cancer Research, priority 1997, dated 2010).

Like-named read-outs stand apart in the source and are kept apart here. Some results are limits rather than exact numbers.

Assay [1] has as its target T1, HLA-A*0201 (Homo sapiens, UniProt P04439, D140Y/D185E/D98H/E176V/E277Q/G131W/G231S/I119V/I121R/I166T/I218V/L300P/L318F/N151K/N90K/P208A/P217A/Q86G/Q94H/R138H/R169H/T345S).
For assay [2], the target named is T1, HLA-A*0201. To be noted: fluorescence index, 16 hours, 23° C.
The subject of another assay is TILN LAU 203. Put plainly: 51Cr release assay, TILN recognition of peptide on T2 cells, TILN LAU 203.
The subject of the next assay is TILN LAU 132. Put plainly: 51Cr release assay, TILN recognition of peptide on T2 cells, TILN LAU 132.
Assay [3] deals with T1, HLA-A*0201. As to conditions: Table II; relative to SEQ ID NO: 2.
The test system of another assay is CTL clone M77.86. In words: 51Cr assay, recognition by Melan-A specific CTL clone M77.86. It counts as cell-based, human. To be noted: Table IV; for EC50: read-out: Peptide [nM] 50%; for Relative activity: relative to SEQ ID NO: 2.
In the next assay the test system is CTL clone 7.10. In words: 51Cr assay, recognition by Melan-A specific CTL clone 7.10. It counts as cell-based, human. To be noted: Table IV; for EC50: read-out: Peptide [nM] 50%; for Relative activity: relative to SEQ ID NO: 2.
Assay [4] deals with Melan-A specific CTL clone. Put plainly: 51Cr assay, recognition by Melan-A specific CTL clone (third clone, name not given). Format: cell-based, human. To be noted: Table IV; for EC50: read-out: Peptide [nM] 50%; for Relative activity: relative to SEQ ID NO: 2.
The next assay concerns CTL clone M77.80. In words: 51Cr assay, recognition by Melan-A specific CTL clone M77.80. As to conditions: Table IV; for EC50: read-out: Peptide [nM] 50%; for Relative activity: relative to SEQ ID NO: 2. Format: cell-based, human.
For another assay, the system named is CTL clone 1.13. Put plainly: 51Cr assay, recognition by Melan-A specific CTL clone 1.13. Format: cell-based, human. To be noted: Table IV; for EC50: read-out: Peptide [nM] 50%; for Relative activity: relative to SEQ ID NO: 2.
Assay [5] deals with five HLA-A*0201 restricted Melan-A specific CTL clones. In words: Recognition by five HLA-A*0201 restricted Melan-A specific CTL clones, statements. It counts as cell-based, human. As to conditions: compared with SEQ ID NO: 2.
The next assay relates to panel of the CTLs. Put plainly: Recognition assay dissecting the CTL panel (Example 10).
The target in assay [6] is T1, HLA-A*0201. The source holds these as a separate data set.
Assay [7] addresses T1, HLA-A*0201. As to conditions: relative to SEQ ID NO: 1.
Setting [8] is: Table I, [nM]50% SEQ ID NO: 2 / [nM]50% test peptide.
The mark [9] stands for this setting: read-out: Peptide [nM] 50%, Table I, T2 targets, effector:target 30:1, concentration giving 50% of maximum activity.
Where [10] appears, read: Table III, relative to SEQ ID NO: 2.
[11] abbreviates: read-out:, Table III, dose response, T2 cells.

As for “ILTVILGVL [SEQ ID NO: 4, reference compound]”, the “binding to HLA-A*0201 compared with SEQ ID NO: 2, in words” value at HLA-A*0201 [1] was “comparable to SEQ ID NO: 2”. In addition, the “relative binding activity, in words” value at HLA-A*0201 [2] is “about the same as SEQ ID NO: 2”. The Relative activity with TILN LAU 203 (setting [8]) is recorded as <4 × 10^−3; with TILN LAU 132 (setting [8]) it was <1.5 × 10^−3. The EC50 in the assay on TILN LAU 203 (setting [9]) and in the assay with TILN LAU 132 (setting [9]) was over 10000 nM throughout.

Turning to `C[C@H](NC(=O)[C@@H](N)CCC(=O)O)C(=O)N[C@@H](CC(=O)O)C(=O)N1CCC[C@H]1C(=O)N[C@H](C(=O)NCC(=O)N[C@@H](Cc1c[nH]cn1)C(=O)N[C@@H](CO)C(=O)N[C@@H](Cc1ccc(O)cc1)C(=O)O)[C@@H](C)O` [SEQ ID NO: 21], on HLA-A*0201 [3], the Relative competitor activity is reported as under 0.6. Further, on HLA-A*0201 [1], the “binding to HLA-A*0201 compared with SEQ ID NO: 2, in words” value is “no binding”.

In the case of `CC[C@H](C)[C@H](NC(=O)CNC(=O)[C@H](C)NC(=O)[C@H](C)NC(=O)[C@@H](N)Cc1ccccc1)C(=O)NCC(=O)N[C@H](C(=O)N[C@@H](CC(C)C)C(=O)N[C@H](C(=O)N[C@H](C(=O)O)C(C)C)[C@@H](C)O)[C@@H](C)CC` [SEQ ID NO: 14], the EC50 with CTL clone M77.86 is 0.005 nM; in the assay on CTL clone 7.10, 7 nM; in [4], over 1000 nM; in the assay on CTL clone M77.80 it was over 1000 nM; in the assay with CTL clone 1.13, 200 nM; in the assay on TILN LAU 203 (setting [11]), 1 nM. Further, the EC50 with TILN LAU 132 (setting [11]) came out at 0.05 nM. Further, the Relative activity was 3000 with CTL clone M77.86; 7 in the assay on CTL clone 7.10; under 0.3 in assay [4]; under 0.3 in the assay on CTL clone M77.80; 20 with CTL clone 1.13; 60 with TILN LAU 203 (setting [10]). Also, in the assay on TILN LAU 132 (setting [10]), the Relative activity was 600. The “recognition by the five CTL clones, in words” value (shortened to “recognition … in words”) in assay [5] is on record as “reduced recognition by the CTLs”. For the same compound, the “recognition by a fifth CTL” value in the assay with panel of the CTLs is given as “not”. Also, in the assay on panel of the CTLs, the “recognition by four of the CTLs” value is “equally well”. Moreover, the “recognition by two other CTLs” value in the assay on panel of the CTLs is listed as “recognized”.

As to “Lys Leu Val Val Val Gly Ala Val Gly Val [SEQ ID NO: 20]”, the lysis percentage at HLA-A*0201 [1] (peptide used alone, CTL clone 7 RAS, T2 cells) is 80%.

With `CC[C@H](C)[C@H](NC(=O)CNC(=O)[C@H](C)NC(=O)[C@@H](N)CCSC)C(=O)NCC(=O)N[C@H](C(=O)N[C@@H](CC(C)C)C(=O)N[C@H](C(=O)N[C@H](C(=O)O)C(C)C)[C@@H](C)O)[C@@H](C)CC` [SEQ ID NO: 8], the EC50 with CTL clone M77.86 worked out at 0.6 nM; with CTL clone 7.10, 15 nM; in assay [4], 200 nM; in the assay on CTL clone M77.80, 0.5 nM; in the assay on CTL clone 1.13, 80 nM; in the assay with TILN LAU 203 (setting [11]), 8 nM. In addition, the EC50 in the assay with TILN LAU 132 (setting [11]) turned out to be 2.5 nM. In addition, the “stability of peptide/HLA-A*0201 complexes” value at HLA-A*0201 [6] was “unstable complexes, which decay within one hour”.

As to `CC[C@H](C)[C@H](NC(=O)CNC(=O)[C@H](CC(C)C)NC(=O)[C@H](C)NC(=O)[C@@H](N)CCC(=O)O)C(=O)NCC(=O)N[C@H](C(=O)N[C@@H](CC(C)C)C(=O)N[C@H](C(=O)N[C@H](C(=O)O)C(C)C)[C@@H](C)O)[C@@H](C)CC` [SEQ ID NO: 11], the EC50 in the assay with CTL clone M77.86 is 0.015 nM; with CTL clone 7.10, 0.5 nM; in assay [4], 0.015 nM; in the assay on CTL clone M77.80, 0.5 nM; in the assay on CTL clone 1.13, 20 nM; in the assay on TILN LAU 203 (setting [11]), over 1000 nM. For the same compound, the EC50 in the assay with TILN LAU 132 (setting [11]) is over 1000 nM. Further, the “recognition … in words” value in assay [5] was “reduced recognition for four of five”. Further, on HLA-A*0201 [6], the “stability of peptide/HLA-A*0201 complexes” value is on record as “intermediate stability”.

For the compound `CC[C@H](C)[C@H](NC(=O)CNC(=O)[C@H](CCSC)NC(=O)[C@H](C)NC(=O)[C@@H](N)CCC(=O)O)C(=O)NCC(=O)N[C@H](C(=O)N[C@@H](CC(C)C)C(=O)N[C@H](C(=O)N[C@H](C(=O)O)C(C)C)[C@@H](C)O)[C@@H](C)CC` [SEQ ID NO: 12], the EC50 in the assay with CTL clone M77.86 was 550 nM; in the assay on CTL clone 7.10, over 1000 nM; in assay [4], 40 nM; in the assay on CTL clone M77.80, over 1000 nM; in the assay on CTL clone 1.13 it was over 10000 nM; in the assay with TILN LAU 203 (setting [11]), over 1000 nM. Further, the EC50 with TILN LAU 132 (setting [11]) is over 1000 nM. In addition, the “recognition … in words” value in assay [5] is “recognition improved”. Besides, the “stability of peptide/HLA-A*0201 complexes” value at HLA-A*0201 [6] is listed as “intermediate stability”.

Regarding `CC[C@H](C)[C@H](NC(=O)CNC(=O)[C@H](CCSC)NC(=O)[C@H](C)N)C(=O)NCC(=O)N[C@H](C(=O)N[C@@H](CC(C)C)C(=O)N[C@H](C(=O)N[C@H](C(=O)O)C(C)C)[C@@H](C)O)[C@@H](C)CC` [SEQ ID NO: 6], the EC50 with CTL clone M77.86 was over 1000 nM; with CTL clone 7.10, over 1000 nM; in assay [4], over 1000 nM; in the assay with CTL clone M77.80, over 1000 nM; in the assay with CTL clone 1.13 it was over 10000 nM; with TILN LAU 203 (setting [11]), over 1000 nM. For the same compound, the EC50 in the assay with TILN LAU 132 (setting [11]) was over 1000 nM. Moreover, the “stability of peptide/HLA-A*0201 complexes” value on HLA-A*0201 [6] is recorded as “intermediate stability”.

Take “Glu Ala Ala Gly Ile Gly Ile Leu Ala Val [SEQ ID NO: 24]”: at HLA-A*0201 [7], the “change in competitor activity, in words” value is listed as “did not result in significant changes in activity”.

As to `CC[C@H](C)[C@H](NC(=O)CNC(=O)[C@H](CC(C)C)NC(=O)[C@H](C)N)C(=O)NCC(=O)N[C@H](C(=O)N[C@@H](CC(C)C)C(=O)N[C@H](C(=O)N[C@H](C(=O)O)C(C)C)[C@@H](C)O)[C@@H](C)CC` [SEQ ID NO: 5], the EC50 was 90 nM in the assay on CTL clone M77.86; over 1000 nM in the assay with CTL clone 7.10; over 1000 nM in assay [4]; over 1000 nM in the assay on CTL clone M77.80; over 10000 nM in the assay on CTL clone 1.13; over 1000 nM in the assay on TILN LAU 203 (setting [11]). Besides, the EC50 in the assay with TILN LAU 132 (setting [11]) is over 1000 nM. Also, the “stability of peptide/HLA-A*0201 complexes” value on HLA-A*0201 [6] is “intermediate stability”.

On to “Glu Ala Ala Gly Ile Gly Ile Ala Thr Val [SEQ ID NO: 23]”, for which the “change in competitor activity, in words” value on HLA-A*0201 [7] is given as “did not result in significant changes in activity”.

As for `CC[C@H](C)[C@H](NC(=O)CNC(=O)[C@H](C)NC(=O)[C@H](C)NC(=O)[C@@H](N)Cc1ccc(O)cc1)C(=O)NCC(=O)N[C@H](C(=O)N[C@@H](CC(C)C)C(=O)N[C@H](C(=O)N[C@H](C(=O)O)C(C)C)[C@@H](C)O)[C@@H](C)CC` [SEQ ID NO: 13], the EC50 in the assay on CTL clone M77.86 was 0.015 nM; with CTL clone 7.10 it was 35 nM; in assay [4], over 1000 nM; in the assay with CTL clone M77.80, 1000 nM; in the assay on CTL clone 1.13 it was over 10000 nM; in the assay on TILN LAU 203 (setting [11]), 5 nM. The EC50 in the assay on TILN LAU 132 (setting [11]) stood at 1 nM. Moreover, the Relative activity with CTL clone M77.86 is recorded as 1000; with CTL clone 7.10 it was 1.4; in assay [4], under 0.3; in the assay with CTL clone M77.80 it was 0.3; with CTL clone 1.13 it was under 0.4; in the assay with TILN LAU 203 (setting [10]) it was 20. In the assay on TILN LAU 132 (setting [10]), this compound displayed a Relative activity of 30. Moreover, the “recognition … in words” value in [5] is listed as “reduced recognition by the CTLs”. In the assay with panel of the CTLs, the “recognition by a fifth CTL” value is recorded as “recognized”. Besides, in the assay on panel of the CTLs, the “recognition by four of the CTLs” value is on record as “equally well”. The “recognition by two other CTLs” value in the assay with panel of the CTLs is given as “not”.
